Laboratory results as given in PMC9447987, “Long-term memory CD8^+ T cells specific for SARS-CoV-2 in individuals who received the BNT162b2 mRNA vaccine” (Nature Communications, 2022).

Columns and labels:
[1] = system: HLA-A*24:02-restricted CD8+ T cells; assay type: cell-based, human
HLA-A*24:02 = HLA-A*24:02 (Homo sapiens, UniProt P04439, D101N/D140Y/D185E/E176V/E190D/F33S/G103R/G107R/I119L/I121M/I306V/K335N/L105A/L180Q/L300P/N151K/N90K/Q86E/Q94H/R106L/R138H/R89G/T104I/T345S/V100E/W191G/Y123F); test: HLA stabilization assay using RMA-S-A2402 cells; assay type: binding
[2] = system: HLA-A*24:02-peptide complexes; test: Peptide–MHC Complex Dissociation Assay using RMA-S-A2402 cells; assay type: binding, human; settings: for % Mean Fluoresence: Fig.7d

With YYVKWPWYV [OC43] the “sensitivity of S-QI9-specific T cells for the peptide compared with the SARS-CoV-2 S-QI9 epitope (in words)” value [1] was “higher sensitivity”, the “number of S-QI9-specific T cell populations that effectively recognized the peptide” value ([1]; 13 HLA-A*24:02+ individuals, C1R-A2402 pre-pulsed with 1 nM peptide) was 13 and the “MFI, HLA-A2402 (APC), representative staining” value (HLA-A*24:02; RMA-S-A2402 cells, Suppl. Fig. 3d (for Fig. 7c), peptide(-) 11.3, 26 °C (Maximum) 24.0) was 45.9. For the same sequence, the “affinity for HLA-A*24:02, times weaker than that of S-QI9” value (HLA-A*24:02; approximately, peptide 0.03 to 10 μM) was 10–30 times, the “% Mean Fluoresence” value ([2]; post-incubation 0 hour, replicate 1) was 100% and the “% Mean Fluoresence” value ([2]; post-incubation 0 hour, replicate 2) was 100%. The “% Mean Fluoresence” value ([2]; post-incubation 0 hour, replicate 3) was 100%, the “% Mean Fluoresence” value ([2]; post-incubation 1 hour, replicate 1) was 70.4% and the “% Mean Fluoresence” value ([2]; post-incubation 1 hour, replicate 2) was 82.2%. For the same sequence, the “% Mean Fluoresence” value ([2]; post-incubation 1 hour, replicate 3) was 77.7%, the “% Mean Fluoresence” value ([2]; post-incubation 2 hour, replicate 1) was 54.3% and the “% Mean Fluoresence” value ([2]; post-incubation 2 hour, replicate 2) was 54.5%. The “% Mean Fluoresence” value ([2]; post-incubation 2 hour, replicate 3) was 58.1%, the “% Mean Fluoresence” value ([2]; post-incubation 4 hour, replicate 1) was 20.6% and the “% Mean Fluoresence” value ([2]; post-incubation 4 hour, replicate 2) was 25.6%. The “% Mean Fluoresence” value ([2]; post-incubation 4 hour, replicate 3) was 22% and the “stability of the HLA-A*24:02-peptide complex (in words)” value ([2]; RMA-S-A2402 cells, 10 μM peptide, 0, 1, 2 and 4 h) was “identical to that of the HLA-A*24:02-S-QI9 peptide complex”.
